Among the data in US7375090B2, “Glucopyranosyloxy-pyrazoles, pharmaceutical compositions containing these compounds, the use thereof and processed for the preparation thereof” (Boehringer Ingelheim International GmbH, priority 2003, dated 2008) are EC50 values, retold here.

What is called EC50 is the concentration giving half of the maximal effect. A lower EC50 goes with higher potency in that assay.

This assay deals with T1, human sodium glucose cotransporter 2 (Homo sapiens, UniProt P31639).
T1 construct: expressed in transfected cells; host or cells: CHO-K1 (ATCC No. CCL 61) or HEK293 (ATCC No. CRL-1573), stably transfected with pZeoSV-hSGLT2
T1 sequence (P31639 1-672): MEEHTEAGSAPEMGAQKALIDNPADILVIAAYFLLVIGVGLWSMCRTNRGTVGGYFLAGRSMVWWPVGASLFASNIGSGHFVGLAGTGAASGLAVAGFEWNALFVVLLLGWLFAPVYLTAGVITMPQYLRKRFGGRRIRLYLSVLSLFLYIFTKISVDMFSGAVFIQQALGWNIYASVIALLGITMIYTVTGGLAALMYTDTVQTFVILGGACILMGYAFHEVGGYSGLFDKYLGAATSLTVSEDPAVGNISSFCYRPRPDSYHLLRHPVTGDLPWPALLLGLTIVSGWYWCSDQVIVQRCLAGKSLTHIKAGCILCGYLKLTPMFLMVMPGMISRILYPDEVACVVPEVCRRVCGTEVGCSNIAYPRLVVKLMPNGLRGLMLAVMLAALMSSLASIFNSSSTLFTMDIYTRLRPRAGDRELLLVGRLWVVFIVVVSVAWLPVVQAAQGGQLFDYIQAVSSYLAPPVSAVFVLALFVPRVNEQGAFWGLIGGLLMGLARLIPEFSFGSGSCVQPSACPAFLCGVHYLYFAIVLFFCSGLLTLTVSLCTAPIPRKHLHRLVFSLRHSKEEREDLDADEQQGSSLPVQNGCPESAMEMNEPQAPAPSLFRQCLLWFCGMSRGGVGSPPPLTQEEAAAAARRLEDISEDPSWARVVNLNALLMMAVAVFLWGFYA
Put plainly: SGLT-2 assay (14C-AMG uptake in CHO-hSGLT2 or HEK-hSGLT2 cells). To be noted: inhibition of 14C-AMG uptake; CHO-K1 or HEK293 cells stably transfected with hSGLT2; 2 hours' incubation at 37° C. Type of assay: cell-based. The method, then:
These cell lines transport ^14C-labelled alpha-methyl-glucopyranoside (14C-AMG, Amersham) into the interior of the cell in sodium-dependent manner.
The SGLT-2 assay is carried out as follows:
CHO-hSGLT2 cells are cultivated in Ham's F12 Medium (BioWhittaker) with 10% foetal calf serum and 250 μg/ml zeocin (Invitrogen), and HEK293-hSGLT2 cells are cultivated in DMEM medium with 10% foetal calf serum and 250 μg/ml zeocin (Invitrogen).
The cells are detached from the culture flasks by washing twice with PBS and subsequently treating with trypsin/EDTA. After the addition of cell culture medium the cells are centrifuged, resuspended in culture medium and counted in a Casy cell counter. Then 40,000 cells per well are seeded into a white, 96-well plate coated with poly-D-lysine and incubated overnight at 37° C., 5% CO2. The cells are washed twice with 250 μl of assay buffer (Hanks Balanced Salt Solution, 137 mM NaCl, 5.4 mM KCl, 2.8 mM CaCl2, 1.2 mM MgSO4 and 10 mM HEPES (pH7.4), 50 μg/ml of gentamycin). Two hundred-fifty microliters of assay buffer and 5 μl of test compound are then added to each well and the plate is incubated for a further 15 minutes in the incubator. Five microliters of 10% DMSO are used as the negative control. […] After this incubation the radioactivity of the ^14C-AMG absorbed is measured in a Topcount (Packard) using a ^14C scintillation program.

Consider `CCc1ccc(Cc2c(O[C@@H]3O[C@H](CO)[C@@H](O)[C@H](O)[C@H]3O)nn(C3CCOCC3)c2C)cc1` [compound (4) of Example 3, 1-(tetrahydropyran-4-yl)-3-(β-D-glucopyranosyloxy)-4-(4-ethylbenzyl)-5-methyl-1H-pyrazole], for which the EC50 is around 5 nM.
